# Read-outs that look alike come from different tables or passages of the source.
# Key:
# [1] = tested on: mitochondrial membrane potential; type: cell-based, mouse; details: for ΔΨm (composite Z-score): normalized score vs mock-treated (DMSO) wells
# [2] = tested on: reactive oxygen species; type: cell-based, mouse; details: for ROS (composite Z-score): normalized score vs mock-treated (DMSO) wells
# [3] = tested on: OXPHOS gene expression; type: cell-based, mouse; details: for GE-HTS (composite Z-score): normalized score vs mock-treated (DMSO) wells
# [4] = tested on: nuOXPHOS transcripts; type: cell-based, mouse; details: for nucOX (composite Z-score): normalized score vs mock-treated (DMSO) wells
# [5] = tested on: mtOXPHOS transcripts; type: cell-based, mouse; details: for mitoOX (composite Z-score): normalized score vs mock-treated (DMSO) wells
# [6] = tested on: cytochrome c; type: cell-based, mouse; details: for cyt c (composite Z-score): normalized score vs mock-treated (DMSO) wells
# [7] = tested on: C2C12 myotubes; details: for Viability (composite Z-score): normalized score vs mock-treated (DMSO) wells
# [8] = tested on: cellular dehydrogenase activity; details: for MTT (composite Z-score): normalized score vs mock-treated (DMSO) wells
# [9] = composite Z-score vs DMSO, Conc 20 μM
# [10] = composite Z-score vs mock-treated (DMSO) wells, Conc 20 μM
# [11] = normalized composite Z-score vs mock-treated (DMSO) wells, Conc 20 μM
# [12] = composite Z-score vs DMSO wells, Conc 20 μM
# [13] = 13.14 μM, composite Z-score vs DMSO
# [14] = 20 μM, composite Z-score vs DMSO
# [15] = 7.92 μM, composite Z-score vs DMSO
smiles,measurement,setting,value
CO/N=C(\C(=O)N[C@@H]1C(=O)N2C(C(=O)OCOC(=O)C(C)(C)C)=C(/C=C\c3scnc3C)CS[C@H]12)c1csc(N)n1 [cefditorin pivoxil],ΔΨm,[1]; [9],0.245
same,ROS,[2]; [9],0.426
same,GE-HTS,[3]; [9],0.238
same,nucOX,[4]; [9],0.100
same,mitoOX,[5]; [9],0.440
same,cyt c,[6]; [9],0.200
same,Viability,[7]; [9],−0.219
same,MTT,[8]; [9],−0.718
CCN1CCN(C(=O)N[C@@H](C(=O)N[C@@H]2C(=O)N3C(C(=O)O)=C(CSc4nnnn4C)CS[C@H]23)c2ccc(O)cc2)C(=O)C1=O [cefoperazone],ΔΨm,[1]; [10],−0.908
same,ROS,[2]; [10],−0.295
same,GE-HTS,[3]; [10],0.130
same,nucOX,[4]; [10],0.013
same,mitoOX,[5]; [10],0.367
same,cyt c,[6]; [10],1.001
same,Viability,[7]; [10],0.097
same,MTT,[8]; [10],−0.793
CO/N=C(\C(=O)N[C@@H]1C(=O)N2C(C(=O)O)=C(COC(C)=O)CS[C@H]12)c1csc(N)n1 [cefotaxime],ΔΨm,[1]; [9],−0.276
same,ROS,[2]; [9],1.000
same,GE-HTS,[3]; [9],−0.379
same,nucOX,[4]; [9],−0.450
same,mitoOX,[5]; [9],−0.214
same,cyt c,[6]; [9],0.366
same,Viability,[7]; [9],−1.283
same,MTT,[8]; [9],−2.276
CO/N=C(\C(=O)N[C@@H]1C(=O)N2C(C(=O)O)=C(CSc3nc(=O)c(=O)[nH]n3C)CS[C@H]12)c1csc(N)n1 [ceftriaxone],ΔΨm,[1],−0.461
same,ROS,[2],−0.002
same,GE-HTS,[3],−0.433
same,nucOX,[4],−0.439
same,mitoOX,[5],−0.382
same,cyt c,[6],0.481
same,Viability,[7],−0.792
same,MTT,[8],−1.040
CO/N=C(\C(=O)N[C@@H]1C(=O)N2C(C(=O)O)=C(COC(N)=O)CS[C@H]12)c1ccco1 [cefuroxime],ΔΨm,[1]; [9],−0.358
same,ROS,[2]; [9],0.366
same,GE-HTS,[3]; [9],0.816
same,nucOX,[4]; [9],0.790
same,mitoOX,[5]; [9],0.699
same,cyt c,[6]; [9],−0.495
same,Viability,[7]; [9],−0.846
same,MTT,[8]; [9],−0.536
OC[C@H]1O[C@@H](O[C@H]2[C@H](O)[C@@H](O)[C@H](O)O[C@@H]2CO)[C@H](O)[C@@H](O)[C@@H]1O [cellobiose (D[+])],ΔΨm,[1]; [11],−0.571
same,ROS,[2]; [11],−0.298
same,GE-HTS,[3]; [11],−0.127
same,nucOX,[4]; [11],0.051
same,mitoOX,[5]; [11],−0.466
same,cyt c,[6]; [11],0.380
same,Viability,[7]; [11],0.390
same,MTT,[8]; [11],0.411
COc1ccc(-c2oc3cc(O[C@@H]4O[C@H](CO)[C@@H](O)[C@H](O)[C@H]4O)c(OC)c(O)c3c(=O)c2OC)cc1O [centaurein],ΔΨm (composite Z-score),[1]; Conc 20 μM,−0.744
same,ROS (composite Z-score),[2]; Conc 20 μM,−0.090
same,GE-HTS (composite Z-score),[3]; Conc 20 μM,0.497
same,nucOX (composite Z-score),[4]; Conc 20 μM,0.388
same,mitoOX (composite Z-score),[5]; Conc 20 μM,0.657
same,cyt c (composite Z-score),[6]; Conc 20 μM,−0.039
same,Viability (composite Z-score),[7]; Conc 20 μM,−0.006
same,MTT (composite Z-score),[8]; Conc 20 μM,−1.640
"CCOC(=O)CCCCCCCCCCCCC1C=CCC1 (centres unmarked) [chaulmoogric acid, ethyl ester]",ΔΨm,[1]; [12],−0.536
same,ROS,[2]; [12],0.513
same,GE-HTS,[3]; [12],−0.730
same,nucOX,[4]; [12],−0.876
same,mitoOX,[5]; [12],−0.265
same,cyt c,[6]; [12],0.617
same,Viability,[7]; [12],−0.015
same,MTT,[8]; [12],−0.612
O=C(CCCCCCCCCCCCC1CCCC1)Nc1ccc(S(=O)(=O)c2ccc(NC(=O)CCCCCCCCCCCCC3CCCC3)cc2)cc1 [chaulmosulfone],ΔΨm (composite Z-score),[1]; Conc 20 μM,−0.993
same,ROS (composite Z-score),[2]; Conc 20 μM,0.935
same,GE-HTS (composite Z-score),[3]; Conc 20 μM,0.157
same,nucOX (composite Z-score),[4]; Conc 20 μM,0.083
same,mitoOX (composite Z-score),[5]; Conc 20 μM,0.305
same,cyt c (composite Z-score),[6]; Conc 20 μM,−0.036
same,Viability (composite Z-score),[7]; Conc 20 μM,−0.010
same,MTT (composite Z-score),[8]; Conc 20 μM,−0.289
O=C(O)CCCc1ccc(N(CCCl)CCCl)cc1 [chlorambucil],ΔΨm,[1]; [13],0.199
same,ΔΨm,[1]; [14],−0.826
same,ROS,[2]; [13],0.056
same,ROS,[2]; [14],0.165
same,GE-HTS,[3]; [13],0.249
same,GE-HTS,[3]; [14],0.725
same,nucOX,[4]; [13],0.147
same,nucOX,[4]; [14],0.360
same,mitoOX,[5]; [13],0.398
same,mitoOX,[5]; [14],1.273
same,cyt c,[6]; [13],0.035
same,cyt c,[6]; [14],−0.955
same,Viability,[7]; [13],−0.507
same,Viability,[7]; [14],−0.007
same,MTT,[8]; [13],−0.069
same,MTT,[8]; [14],−1.519
[H]/N=C(\N/C(=N/[H])NCCCCCCNC(=N)NC(=N)Nc1ccc(Cl)cc1)Nc1ccc(Cl)cc1 [chlorhexidine],ΔΨm,[1]; [15],0.348
same,ΔΨm,[1]; [14],0.412
same,ROS,[2]; [15],−2.490
same,ROS,[2]; [14],1.660
same,GE-HTS,[3]; [15],0.775
same,GE-HTS,[3]; [14],−0.455
same,nucOX,[4]; [15],0.990
same,nucOX,[4]; [14],−0.592
same,mitoOX,[5]; [15],0.140
same,mitoOX,[5]; [14],−0.141
same,cyt c,[6]; [15],0.090
same,cyt c,[6]; [14],−1.683
same,Viability,[7]; [15],−1.859
same,Viability,[7]; [14],−0.976
same,MTT,[8]; [15],−4.138
same,MTT,[8]; [14],−2.340

# Source: patent US20090143279A1 (priority 2007, published 2009)
